Assays:
[1] = tested on: E. coli isogenic strain aph(3′)-Ia; experiment: MIC broth microdilution, E. coli isogenic strain aph(3′)-Ia; format: cell-based; settings: Table 2; aph(3′)-Ia has activity at both the 3′-hydroxy and 5″-hydroxy positions
Experimental: (§1) Minimum inhibitory concentrations for the example compounds herein are determined by the broth microdilution method in accordance with the Clinical and Laboratory Standards Institute (CLSI) guidelines. In brief, organism suspensions are adjusted to a 0.5 McFarland standard to yield a final inoculum between 3×10^5 and 7×10^5 colony-forming units (CFU)/mL. Compound dilutions and inocula are made in sterile, cation adjusted Mueller-Hinton Broth (Beckton Dickinson). The inoculum is prepared by suspension of a colony from an agar plate that is prepared the previous day. Bacteria are suspended in sterile saline and added to each assay plate to obtain a final concentration of 5×10^5 CFU/mL. An inoculum volume of 100 μL is added to wells containing 100 μL of broth with 2-fold serial dilutions of the compound. All inoculated microdilution trays are incubated in ambient air at 35° C. for 18-24 hours. Following incubation, the lowest concentration of the compound that prevents visible growth (OD 600 nm<0.05) is recorded as the MIC. […] Performance of the assay is monitored by the use of laboratory quality-control strains and a compound with a defined MIC spectrum (such as levofloxacin), in accordance with CLSI guidelines. Compounds are tested against multiple microbiologic panels. Panels include: 1) a multi-species primary screening panel that includes multiple defined AG-R mechanisms; 2) a panel of isogenic strains carrying different common mechanisms of AG-R that allows characterization of the SAR for AMEs, RMTs, and entry and efflux resistance mechanisms; and 3) panels of recent clinical isolates selected from Phase 3 studies and ongoing global surveillance.

[2] = tested on: E. coli isogenic strain nmpA; experiment: MIC broth microdilution, E. coli isogenic strain nmpA; format: cell-based; settings: Table 2
Experimental: as §1

[3] = tested on: E. coli isogenic strain aph(3′)-II; experiment: MIC broth microdilution, E. coli isogenic strain aph(3′)-II; format: cell-based; settings: Table 2
Experimental: as §1

[4] = tested on: E. coli Δefflux (tolC efflux pump knocked-out); experiment: MIC broth microdilution, E. coli Δefflux strain (tolC knocked out); format: cell-based
Experimental: as §1

[5] = tested on: E. coli isogenic strain ant(4′)-Ia; experiment: MIC broth microdilution, E. coli isogenic strain ant(4′)-Ia; format: cell-based; settings: Table 2
Experimental: as §1

[6] = tested on: E. coli isogenic strain armA; experiment: MIC broth microdilution, E. coli isogenic strain armA; format: cell-based; settings: Table 2
Experimental: as §1

[7] = tested on: E. coli isogenic strain aac(6′)-Ib; experiment: MIC broth microdilution, E. coli isogenic strain aac(6′)-Ib; format: cell-based; settings: Table 2
Experimental: as §1

E. coli ATCC 25922 = experiment: Minimum inhibitory concentration (broth microdilution, CLSI), E. coli ATCC 25922; format: cell-based; settings: geometric mean
Experimental: as §1

E. coli efflux parent = experiment: MIC broth microdilution, E. coli efflux parent strain; format: cell-based; settings: geometric mean
Experimental: as §1

[8] = tested on: E. coli isogenic strain empty vector; experiment: MIC broth microdilution, E. coli isogenic strain, empty vector; format: cell-based; settings: Table 2
Experimental: as §1

[9] = tested on: P. aeruginosa Δefflux (MexAB-OprM, MexCD-OprJ, MexEF-OprN knocked out); experiment: MIC broth microdilution, P. aeruginosa Δefflux strain; format: cell-based; settings: Table 1, MexEF-OprN efflux pumps knocked out
Experimental: as §1

translation = experiment: Translation Inhibition Assay; format: biochemical; settings: Table 1
Text: Biological Example 2: Translation Inhibition Assay

[10] = tested on: P. aeruginosa efflux parent; experiment: MIC broth microdilution, P. aeruginosa efflux parent strain; format: cell-based; settings: Table 1; geometric mean
Experimental: as §1

P. aeruginosa ATCC 27853 = experiment: MIC broth microdilution, P. aeruginosa ATCC 27853; format: cell-based; settings: Table 1; geometric mean
Experimental: as §1

Row | SMILES | Geometric Mean MIC values, E. coli isogenic strains, aph(3′)-Ia [1] [µg/mL] | Geometric Mean MIC values, E. coli isogenic strains, nmpA [2] [µg/mL] | Geometric Mean MIC values, E. coli isogenic strains, aph(3′)-II [3] [µg/mL] | Geometric Mean MIC values, E. coli Δefflux ([4]; Table 2) [µg/mL] | Geometric Mean MIC values, E. coli isogenic strains, ant(4′)-Ia [5] [µg/mL] | Geometric Mean MIC values, E. coli isogenic strains, armA [6] [µg/mL] | Geometric Mean MIC values, E. coli isogenic strains, aac(6′)-Ib [7] [µg/mL] | Geometric Mean MIC values, E. coli ATCC 25922 (E. coli ATCC 25922; Table 2) [µg/mL] | Geometric Mean MIC values, E. coli efflux parent (E. coli efflux parent; Table 2) [µg/mL] | Geometric Mean MIC values, E. coli isogenic strains, empty vector [8] [µg/mL] | Geometric Mean MIC values, P. aeruginosa Δefflux [9] [µg/mL] | Geometric Mean MIC values, E. coli Δefflux ([4]; Table 1) [µg/mL] | IC50 (translation) [nM] | Geometric Mean MIC values, P. aeruginosa efflux parent [10] [µg/mL] | Geometric Mean MIC values, E. coli ATCC 25922 (E. coli ATCC 25922; Table 1) [µg/mL] | Geometric Mean MIC values, P. aeruginosa ATCC 27853 (P. aeruginosa ATCC 27853) [µg/mL] | Geometric Mean MIC values, E. coli efflux parent (E. coli efflux parent; Table 1) [µg/mL]
1 | NCC1OC(OC2C(CO)OC(OC3C(O)C(N)CC(N)C3OC3OC(CN)C(F)(F)C(O)C3N)C2O)C(N)C(O)C1O (stereo not drawn) | >64 | 64 | 4 | 1 | 1 | 4 | 16 | 2 | 2 | 1.4 |  |  |  |  |  |  | 
2 | NC[C@@H]1O[C@H](O[C@H]2[C@@H](O)[C@H](O[C@@H]3[C@@H](O)[C@H](N)C[C@H](N)[C@H]3O[C@H]3O[C@H](CN)[C@@H](O)[C@H](O)[C@H]3N)O[C@@H]2CO)[C@H](N)[C@@H](O)[C@@H]1O [NEO, neomycin B, reference compound] | >64 | 80 | 18 | 0.79 | 2.2 | 0.75 | 1.6 | 1 | 0.76 | 0.64 |  |  |  |  |  |  | 
3 | NCC1OC(OC2C(CO)OC(OC3C(O)C(N)CC(N)C3OC3OC(CN)C(O)C(F)(F)C3N)C2O)C(N)C(O)C1O (stereo not drawn) [drawing 854] |  |  |  |  |  |  |  |  |  |  | 1 | 2 | 63 | 8 | 4 | 4 | 4
4 | NCC1CCC(N)C(OC2C(N)CC(N)C(O)C2OC2OC(CO)C(OC3OC(CN)C(O)C(O)C3N)C2O)O1 (stereo not drawn) [drawing 856, reference compound] | 64 | >64 | 0.35 | 0.87 | 0.5 | 0.74 | 5.7 | 1.1 | 0.87 | 0.61 |  |  |  |  |  |  | 
5 | CC(N)C1CCC(N)C(OC2C(N)CC(N)C(O)C2OC2OC(CO)C(OC3OC(CN)C(O)C(O)C3N)C2O)O1 (stereo not drawn) [drawing 857] | 64 | >64 | 0.71 | 0.84 | 0.71 | 1.5 | 1 | 1.4 | 1 | 0.84 |  |  |  |  |  |  | 
6 | CC(N)C1CCC(N)C(OC2C(N)CC(N)C(O)C2OC2OC(CO)C(OC3OC(CN)C(O)C(O)C3N)C2O)O1 (stereo not drawn) [drawing 858] | >64 | >64 | 1 | 1 | 0.5 | 1.4 | 1 | 2 | 1 | 1 |  |  |  |  |  |  | 

Reference: US11414450B1, “Aminoglycosides and uses thereof” (REVAGENIX, INC., priority 2017, dated 2022)
